Laboratory results as given in patent US9149535B2, “Polymers and the preparation of nanogel drug cocktails” (University of South Carolina, priority 2012, dated 2015).

System: cancer cells
Assay: Intracellular trafficking by confocal laser scanning microscopy (CLSM)
Type: cell-based
Conditions: 3 hr
Text: To monitor the intracellular trafficking of nanogel, confocal laser scanning microscopy (CLSM) was employed. […] Since only about 20% DOX could be released from nanogel under the intracellular environment (FIG. 2A), the signals should mainly represent ND nanogel. […] Due to its relatively large size, it will be impossible for it to pass the nuclear pore complex, which is about 40 nm.

COc1cccc2c1C(=O)c1c(O)c3c(c(O)c1C2=O)C[C@@](O)(C(=O)CO)C[C@@H]3O[C@H]1C[C@H](N)[C@H](O)[C@H](C)O1 [DOX, doxorubicin]
intracellular localisation: preferentially labels their nuclei
